Activity calls are given as the source filed them. The rule behind the calls is not given here.
What was measured:
[1] = tested on: RAW264.7; experiment: Anti-inflammatory activity against mouse RAW264.7 cells assessed as inhibition of LPS-induced NO production at 60 uM pretreated for 1 hr followed by incubation with LPS and measured after 24 hrs by Griess reagent based analysis; assay type: functional, cell-based; settings: time 25.0 hrs
[2] = tested on: RAW264.7; experiment: Cytotoxicity against mouse RAW264.7 cells assessed as reduction in cell viability at 80 uM incubated for 24 hrs by MTT assay; assay type: toxicity, cell-based; settings: raw264.7, 24 h
[3] = tested on: SW-620; experiment: Cytotoxicity against human SW-620 cells assessed as reduction in metabolically active cells by MTT assay; assay type: functional, cell-based
[4] = tested on: RAW264.7; experiment: Anti-inflammatory activity against LPS-activated mouse RAW264.7 cells assessed as reduction of TNF-alpha gene expression at 7.5 to 30 uM pretreated for 1 hr followed by incubation with LPS for 24 hrs by qRT-PCR analysis; assay type: functional, cell-based; settings: dose 7.5-30 µM, time 25.0 hrs
[5] = tested on: RAW264.7; experiment: Downregulation of NF-kappaB expression in LPS-activated mouse RAW264.7 cells at 7.5 to 30 uM pretreated for 1 hr followed by incubation with LPS for 24 hrs by western blot analysis; assay type: functional, cell-based; settings: dose 7.5-30 µM, time 25.0 hrs
[6] = tested on: RAW264.7; experiment: Anti-inflammatory activity against LPS-activated mouse RAW264.7 cells assessed as reduction of IL-6 gene expression at 7.5 to 30 uM pretreated for 1 hr followed by incubation with LPS for 24 hrs by qRT-PCR analysis; assay type: functional, cell-based; settings: dose 7.5-30 µM, time 25.0 hrs
[7] = tested on: RAW264.7; experiment: Anti-inflammatory activity against mouse RAW264.7 cells assessed as inhibition of LPS-induced ROS production at 10 to 40 uM pretreated for 1 hr followed by incubation with LPS for 24 hrs by DCFH-DA staining based fluorescence microscopy; assay type: functional, cell-based; settings: dose 10-40 µM, time 25.0 hrs
[8] = tested on: RAW264.7; experiment: Inhibition of NF-kappaB in mouse RAW264.7 cells assessed as inhibition of LPS-induced NF-kappaB p65 nuclear translocation at 15 to 60 uM pretreated for 1 hr followed by incubation with LPS for 24 hrs by immunofluorescence analysis; assay type: cell-based; settings: dose 15-60 µM, time 25.0 hrs
[9] = species on record: Danio rerio; experiment: Anti-inflammatory activity against Zebra fish embryo assessed as inhibition of LPS-induced ROS production at 5 uM pretreated with LPS followed by incubation with drug by fluorescence microscopy; assay type: functional, organism-based
[10] = tested on: RAW264.7; experiment: Anti-inflammatory activity against LPS-activated mouse RAW264.7 cells assessed as reduction of NFkappaB p52 gene expression at 7.5 to 30 uM pretreated for 1 hr followed by incubation with LPS for 24 hrs by qRT-PCR analysis; assay type: functional, cell-based; settings: dose 7.5-30 µM, time 25.0 hrs
[11] = tested on: RAW264.7; experiment: Anti-inflammatory activity against mouse RAW264.7 cells assessed as inhibition of LPS-induced NO production pretreated for 1 hr followed by incubation with LPS and measured after 24 hrs by Griess reagent based analysis; assay type: functional, cell-based
[12] = tested on: RAW264.7; experiment: Downregulation of phospho-IKKalpha/beta expression in LPS-activated mouse RAW264.7 cells at 7.5 to 30 uM pretreated for 1 hr followed by incubation with LPS for 24 hrs by western blot analysis; assay type: functional, cell-based; settings: dose 7.5-30 µM, time 25.0 hrs
[13] = tested on: RAW264.7; experiment: Anti-inflammatory activity against mouse RAW264.7 cells assessed as inhibition of LPS-induced ROS production at 15 to 60 uM pretreated for 1 hr followed by incubation with LPS for 24 hrs by DCFH-DA staining based flow cytometry; assay type: functional, cell-based; settings: dose 15-60 µM, time 25.0 hrs
[14] = tested on: RAW264.7; experiment: Anti-inflammatory activity against LPS-activated mouse RAW264.7 cells assessed as reduction of IL-1 beta gene expression at 7.5 to 30 uM pretreated for 1 hr followed by incubation with LPS for 24 hrs by qRT-PCR analysis; assay type: functional, cell-based; settings: dose 7.5-30 µM, time 25.0 hrs

SMILES | Activity [1] | Activity [2] | further results
COc1cc(O)c2c(c1O)[C@H](O)[C@H]1C[C@](C)(O)[C@H](O)C[C@H]1C2=O | Active | – | –
COc1cc(O)c2c(c1O)[C@H]1O[C@]3(C)C[C@H]1[C@@H](C[C@@H]3O)C2=O | – | Toxic | –
COC1=CC(=O)c2c(cc3c(c2O)[C@H](O)[C@@H](O)[C@@](C)(O)C3)C1=O | – | Toxic | IC50 [3]: 13.7 µM
COc1cc(O)c2c(c1O)[C@H](OC)[C@H]1C[C@](C)(O)[C@H](O)[C@@H](O)[C@H]1C2=O | – | Toxic | –
COc1cc(O)c2c(c1N)C(=O)C1=C(C[C@@H](O)[C@@](C)(O)C1)C2=O | Active | – | –
COc1cc(O)c2c(c1O)C(=O)C1=C(C[C@@H](O)[C@@](C)(O)C1)C2=O | – | Toxic | –
COc1cc(O)c2c(c1O)C(O)C1C[C@](C)(O)[C@H](O)CC1C2=O (stereo partly drawn) | – | Toxic | –
COc1cc(O)c2c(c1O)C(=O)[C@H]1C[C@](C)(O)[C@H](O)[C@@H](O)[C@@H]1C2=O | Active | – | –
COc1cc(O)c2c(c1O)[C@H](O)[C@H]1C[C@](C)(O)[C@H](O)[C@@H](O)[C@H]1C2=O | Active | – | Activity [4]: Active; inhibition [5]: Active; Activity [6]: Active; Activity [7]: Active; inhibition [8]: Active; Activity [9]: Active; Activity [10]: Active; IC50 [11]: 7.5 µM; inhibition [12]: Active; Activity [13]: Active; Activity [14]: Active
COc1cc(O)c2c(c1O)[C@H](O)[C@H]1C[C@](C)(O)[C@H](O)[C@@H](O)[C@@H]1C2=O [9ALPHA-HYDROXYHALOROSELLINIA A] | – | Toxic | –
COc1cc(O)c2c(c1O)[C@@H](OC)[C@H]1C[C@](C)(O)[C@H](O)[C@@H](O)[C@@H]1C2=O | Active | – | –
COc1cc(O)c2c(c1O)[C@H](OC)[C@H]1C[C@](C)(O)[C@H](O)C[C@@H]1C2=O | Active | – | –
COc1cc(O)c2c(c1O)[C@H](O)[C@H]1C[C@](C)(O)C[C@@H](O)[C@@H]1C2=O | – | Toxic | –
COc1cc(O)c2c(c1O)[C@@H](OC)[C@H]1C[C@](C)(O)[C@H](O)C[C@@H]1C2=O | Active | – | –
COc1cc(O)c2c(c1O)[C@H](OC)[C@H]1C[C@](C)(O)[C@H](O)[C@@H](O)[C@@H]1C2=O | Active | – | –
C[C@]1(O)C[C@@]2(O)[C@H](C[C@H]1O)C(=O)c1c(O)ccc(O)c1[C@@H]2O | Active | – | –
